Assay results published in patent US10722491B2, “Phenol compound and combination of same with a benzodiazepine fused to 1,4-dihydropyridine for treating diseases of the central nervous and vascular systems” (UNIVERSIDAD DE LA HABANA, priority 2016, dated 2020).

How the values were obtained:
[1] = KM-34 capacity to reduce DPPH radicals; assay type: biochemical; details: DPPH 100 μM, 30 minutes of reaction; read-out: IC50, reduction of DPPH radicals
Protocol: FIG. 1. Percentage reduction of DPPH (100 μM) by KM-34 (5-400 μM) was determined by changing in the absorbance at 550 nm from a target containing only DPPH and vehicle (zero concentration of KM −34 or AA), after 30 minutes of reaction. Values are expressed as the mean ± SD (n=3). *P<0.05 with respect to the vehicle.
One of the most commonly used methods to estimate antioxidant activity is to evaluate the ability of different compounds to reduce DPPH radicals, which can be determined spectrophotometrically (Brand-Williams et al., 1995). […] Electron delocalization causes the intense violet coloration of the DPPH radical form when it is prepared in ethanol solution (Molyneux et al., 2004).
The IC 50 value obtained for KM was approximately 2.4 times lower than that obtained for ascorbic acid (AA) used as the reference compound.

[2] = test system: transient occlusion of the common carotid arteries; assay: Vascular dementia model (transient occlusion of common carotid arteries), Morris maze; assay type: in vivo, male Swiss albino mice; details: JM-20 4 mg/kg p.o., 1 hour after reperfusion and all days of the test; vs animals without treatment
Protocol: As a model of vascular dementia, the animals (male Swiss albino mice) underwent transient occlusion of the common carotid arteries for 20 minutes and cognitive impairment was evaluated through the Morris labyrinthine assay. […] As a model of permanent cortical ischemia, thermo-coagulation of the pials arteries was induced and the percentage of asymmetry was quantified.

IC50 [1] [µM]	SMILES	Escape latency time, Morris maze [2]
38.7	O=C1O[C@H]([C@@H](O)CO)C(O)=C1O [AA, ascorbic acid, reference compound]	–
–	CCOC(=O)C1=C(C)NC2=C(C=Nc3ccccc3N2)C1c1ccccc1[N+](=O)[O-] (centres unmarked) [JM-20, 3-ethoxycarbonyl-2-methyl-4-(2-nitrophenyl)-4,11-dihydro-1H-pyrido[2,3-b][1,5]benzodiazepine]	significantly (p<0.05)
